# In ChEMBL document CHEMBL1139458, “Discovery of small-molecule inhibitors of the ATPase activity of human papillomavirus E1 helicase” (J Med Chem, 2004):
# Target: T1, DNA helicase/primase complex protein (Herpes simplex virus (type 1 / strain 17), UniProt P10236)
# T1 sequence (P10236 whole entry): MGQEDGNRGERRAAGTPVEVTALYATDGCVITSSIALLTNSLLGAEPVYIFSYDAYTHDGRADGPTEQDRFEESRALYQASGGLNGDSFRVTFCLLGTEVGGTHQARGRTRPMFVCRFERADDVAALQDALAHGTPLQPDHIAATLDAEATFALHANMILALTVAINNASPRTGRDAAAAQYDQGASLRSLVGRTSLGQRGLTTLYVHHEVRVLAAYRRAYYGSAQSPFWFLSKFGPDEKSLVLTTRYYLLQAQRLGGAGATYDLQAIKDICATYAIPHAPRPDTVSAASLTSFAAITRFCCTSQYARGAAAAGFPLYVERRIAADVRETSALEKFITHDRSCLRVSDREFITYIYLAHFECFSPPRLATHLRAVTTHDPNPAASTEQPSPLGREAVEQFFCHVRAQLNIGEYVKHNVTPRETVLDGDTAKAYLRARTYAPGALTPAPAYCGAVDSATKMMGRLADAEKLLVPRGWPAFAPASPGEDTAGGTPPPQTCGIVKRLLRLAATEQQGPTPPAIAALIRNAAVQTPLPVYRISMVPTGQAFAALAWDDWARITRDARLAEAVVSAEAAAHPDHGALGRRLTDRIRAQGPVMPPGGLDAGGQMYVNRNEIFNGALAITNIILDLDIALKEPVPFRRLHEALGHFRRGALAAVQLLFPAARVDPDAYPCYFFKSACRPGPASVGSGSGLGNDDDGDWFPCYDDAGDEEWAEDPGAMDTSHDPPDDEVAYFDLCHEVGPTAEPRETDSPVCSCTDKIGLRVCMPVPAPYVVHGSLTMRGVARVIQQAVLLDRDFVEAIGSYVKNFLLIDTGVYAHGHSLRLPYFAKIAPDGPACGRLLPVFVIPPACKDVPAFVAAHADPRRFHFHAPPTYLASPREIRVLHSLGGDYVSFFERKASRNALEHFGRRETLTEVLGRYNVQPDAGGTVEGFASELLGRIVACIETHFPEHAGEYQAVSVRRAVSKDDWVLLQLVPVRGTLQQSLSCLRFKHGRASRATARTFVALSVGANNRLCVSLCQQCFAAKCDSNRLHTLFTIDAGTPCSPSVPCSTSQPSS
# Assay: Inhibitory concentration against herpes simplex virus helicase primase 8 (HSV)
smiles,measurement,value
O=C(O)CS(=O)(=O)c1ccc(-c2ccccc2)cc1,IC50,> 80 µM
